Results on six compounds are retold here after patent publication US6960678B2, “Silanol enzyme inhibitors” (The Research Foundation of State University of New York, priority 1996, dated 2005).

Like-named read-outs stand apart in the source and are kept apart here.

Data set [1] relates to angiotensin-converting enzyme. The conditions noted are these: Galardy and Kortylewicz 1985; cited from earlier work.
A further data set addresses T1, HIV-protease enzyme (Human immunodeficiency virus type 1 group M subtype B, UniProt P04585).
T1 construct: tested against HIV-protease enzyme (Ki)
Description: HIV-protease enzyme inhibition (Ki). The data set is classed as biochemical, HIV-1.

For another data set, the system named is HIV-1 virus. Kind of data set: antiviral cell culture assay (IC90). The data set is classed as cell-based.
Data set [2] can be described thus: storage stability as solid or in solution (polymerization / oligomerization). It is filed as physicochemical. The source says: The compounds are stable and can be stored for weeks or longer at room temperature without noticeable decomposition in either solid or solution form. In addition, there is no intrinsic toxicity associated with silicon (Friedberg, K. D. and Schiller, E., Handbook on Toxicity of Inorganic Compounds, Eds. Seiler H, G., and Sigel, H.; Marcel Dekker, New York, 1988, pp. 595-617).
The C2 symmetry of the HIV protease has led to the development of C2 symmetric inhibitors such as Merck's L-700, 417. The silanediol analog 9a was prepared from the commercially available dichlorodiphenylsilane. Treatment of this dichlorosilane with the enantiomerically pure lithium reagent 53b led to the symmetric diether 54 in 75% yield. Cleavage of the ethers and oxidation to the diacid was followed by preparation of the diamide 56. For this study, N-benzyl amides were used as the simplest first analog. Hydrolysis of diphenylsilane 56 to the silanediol 9a was effected by treatment with triflic acid in dichloromethane at 0° C. for ten to 30 minutes. Under these conditions, both phenyl groups on silicon are lost very rapidly. We believe that the intermediate formed is not a di-triflate, but is the spirocyclic intermediate 57. Addition of the triflic acid-derived intermediate to an aqueous phase (either acidic, buffered, or basic) serves to finish hydrolysis to the diol 9a. […]

Data set [3] deals with T2, recombinant HIV-1 protease (Human immunodeficiency virus type 1 group M subtype B, UniProt P04585).
T2 construct: recombinant HIV-1 protease
Kind of data set: HIV-1 protease inhibition, cleavage of substrate polypeptide, HPLC-based detection. It is filed as biochemical. The source says:
The standard test procedure for HIV-1 protease inhibition uses recombinant HIV-1 protease in an assay which monitors cleavage of a substrate polypeptide using an HPLC-based detection system. Proc. Nat. Acad. Sci. 86, 9752 (1989).

[4] abbreviates: HIV-protease enzyme, read-out: Ki.

Regarding `C[Si](C)(O)O` [dimethylsilanediol], the “inhibitor of angiotensin-converting enzyme” value in data set [1] is “inactive”. Turning to “Di-[1-(S)-(2,(R)-hydroxyindanyl)]2-(S)-6-(S)-dibenzyl-4,4-dihydroxy-4-sila-heptanediamide [Compound 9b]”, on HIV-protease enzyme (setting [4]), the Ki (commonly the dissociation constant of the complex between target and ligand, obtained from inhibition or displacement) worked out at 2.7 nM. In the data set on HIV-1 virus, the IC90 (usually the point of the concentration-response curve where the effect stands at 90%) came out at 170 nM. For the compound `CC(C)(C)NC(=O)[C@@H]1CN(Cc2cccnc2)CCN1C[C@@H](O)C[C@@H](Cc1ccccc1)C(=O)N[C@H]1c2ccccc2C[C@H]1O` [indinavir, reference compound], the IC90 in the data set on HIV-1 virus (Human immunodeficiency virus 1) amounted to 33 nM. This lies in the double-digit nanomolar range. In the case of `O=C(NCc1ccccc1)C(Cc1ccccc1)C[Si](O)(CC(Cc1ccccc1)C(=O)NCc1ccccc1)O[Si](O)(CC(Cc1ccccc1)C(=O)NCc1ccccc1)CC(Cc1ccccc1)C(=O)NCc1ccccc1` [Compound 60, 1,3-dihydroxy-1,1,3-3-tetra(3-[2-(S)-2-phenylmethylpropionyl])-disiloxane tetra(N-phenylmethylamide)], the Ki at HIV-protease enzyme (setting [4]) is 4670 nM. In turn, `O=C(NCc1ccccc1)[C@H](Cc1ccccc1)C[Si](O)(O)C[C@@H](Cc1ccccc1)C(=O)NCc1ccccc1` [Compound 9a, Di-benzyl 2-(S)-6-(S)-dibenzyl-4,4-dihydroxy-4-sila-heptanediamide] returned a Ki at HIV-protease enzyme of 3160 nM. The “storage stability of the pure diol” value in data set [2] (as a solid or in deuterochloroform solution, for weeks) is recorded as “without polymerization”. For the same compound, the “stability in DMSO” value in data set [2] (taken up in DMSO, one week) is recorded as “fully stable”. Besides, the IC50 (commonly the point on the concentration scale where inhibition reaches its midpoint) in data set [3] is 5600 nM. As to `O=C(NCc1ccccc1)C(Cc1ccccc1)C[Si]1(CC(Cc2ccccc2)C(=O)NCc2ccccc2)O[Si](CC(Cc2ccccc2)C(=O)NCc2ccccc2)(CC(Cc2ccccc2)C(=O)NCc2ccccc2)O[Si](CC(Cc2ccccc2)C(=O)NCc2ccccc2)(CC(Cc2ccccc2)C(=O)NCc2ccccc2)O[Si](CC(Cc2ccccc2)C(=O)NCc2ccccc2)(CC(Cc2ccccc2)C(=O)NCc2ccccc2)O1` [Compound 61, 1,1,3,3,5,5,7,7-octa(3-[2-(S)-2-phenylmethylpropionyl)]-cyclotetrasiloxane octa(N-phenylmethylamide)], the Ki at HIV-protease enzyme (setting [4]) was found to be 2300 nM.
